According to patent US11697648B2, “Fused pyrimidine pyridinone compounds as JAK inhibitors” (THERAVANCE BIOPHARMA R&D IP, LLC, priority 2019, dated 2023):

Test system: IL-2 stimulated STAT5 phosphorylation in Tall-1 human T cell line (JAK3)
Test: Cellular JAK3 potency assay: inhibition of IL-2 stimulated pSTAT5 in Tall-1 T cells
Assay type: cell-based
Details: IL-2 stimulated pSTAT5, Tall-1 T cells
Summary of the method: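 Tall-1 cells, 45,000 per well, preincubated 1 hour with compound at 37 °C, then stimulated 30 minutes with IL-2 at 300 ng/ml final. pSTAT5 (Tyr694/699) in lysates quantified by AlphaLISA SureFire Ultra. pIC50 derived from inhibition curves, given as mean with SD.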

| SMILES | Tall-1 (pIC50) |
| --- | --- |
| C=CC(=O)N1CCN(CCn2c(=O)ccc3cnc(Nc4ccc(CN5CCOCC5)cc4)nc32)CC1 [Example 80] | B (B represents a pC50 value between 6.7 (included) and 7.5 (IC50 between 200 nM and 32 nM)) |
| C=CC(=O)N1CC(CCn2c(=O)ccc3cnc(Nc4ccc5[nH]ncc5c4)nc32)C1 [Example 82] | C (C represents a pIC50 value between 6 and 6.7 (IC50 between 1 μM and 200 nM)) |
| C=CC(=O)N1CC(CCn2c(=O)ccc3cnc(Nc4ccc5cn[nH]c5c4)nc32)C1 [Example 83] | C (C represents a pIC50 value between 6 and 6.7 (IC50 between 1 μM and 200 nM)) |
| C=CC(=O)N1CC(CCn2c(=O)ccc3cnc(Nc4cccc(CN5CCSCC5)c4)nc32)C1 [Example 85] | B (B represents a pC50 value between 6.7 (included) and 7.5 (IC50 between 200 nM and 32 nM)) |
| C=CC(=O)N1CC(CCn2c(=O)ccc3cnc(Nc4ccc(CN5CCSCC5)cc4)nc32)C1 [Example 86] | B (B represents a pC50 value between 6.7 (included) and 7.5 (IC50 between 200 nM and 32 nM)) |
| C=CC(=O)N1CC(CCn2c(=O)ccc3cnc(Nc4cccc(CN(C)C)c4)nc32)C1 [Example 90] | B (B represents a pC50 value between 6.7 (included) and 7.5 (IC50 between 200 nM and 32 nM)) |

Biological target: JAK2 (Homo sapiens (Human), UniProt O60674)
Test: Biochemical JAK2 kinase assay (LanthaScreen)
Details: not given
Summary of the method: (§1)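 GST-JAK + GFP-STAT1 peptide, HEPES pH 7.5/MgCl2/EGTA/Brij-35 buffer; cpd preincubation 1 h RT; ATP start, 1 h RT; stop with 10 mM EDTA + 2 nM Tb-anti-pSTAT1; TR-FRET 520/495. 4-parameter IC50 → pKi (Cheng-Prusoff).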

Sequence of JAK2 (O60674 whole entry): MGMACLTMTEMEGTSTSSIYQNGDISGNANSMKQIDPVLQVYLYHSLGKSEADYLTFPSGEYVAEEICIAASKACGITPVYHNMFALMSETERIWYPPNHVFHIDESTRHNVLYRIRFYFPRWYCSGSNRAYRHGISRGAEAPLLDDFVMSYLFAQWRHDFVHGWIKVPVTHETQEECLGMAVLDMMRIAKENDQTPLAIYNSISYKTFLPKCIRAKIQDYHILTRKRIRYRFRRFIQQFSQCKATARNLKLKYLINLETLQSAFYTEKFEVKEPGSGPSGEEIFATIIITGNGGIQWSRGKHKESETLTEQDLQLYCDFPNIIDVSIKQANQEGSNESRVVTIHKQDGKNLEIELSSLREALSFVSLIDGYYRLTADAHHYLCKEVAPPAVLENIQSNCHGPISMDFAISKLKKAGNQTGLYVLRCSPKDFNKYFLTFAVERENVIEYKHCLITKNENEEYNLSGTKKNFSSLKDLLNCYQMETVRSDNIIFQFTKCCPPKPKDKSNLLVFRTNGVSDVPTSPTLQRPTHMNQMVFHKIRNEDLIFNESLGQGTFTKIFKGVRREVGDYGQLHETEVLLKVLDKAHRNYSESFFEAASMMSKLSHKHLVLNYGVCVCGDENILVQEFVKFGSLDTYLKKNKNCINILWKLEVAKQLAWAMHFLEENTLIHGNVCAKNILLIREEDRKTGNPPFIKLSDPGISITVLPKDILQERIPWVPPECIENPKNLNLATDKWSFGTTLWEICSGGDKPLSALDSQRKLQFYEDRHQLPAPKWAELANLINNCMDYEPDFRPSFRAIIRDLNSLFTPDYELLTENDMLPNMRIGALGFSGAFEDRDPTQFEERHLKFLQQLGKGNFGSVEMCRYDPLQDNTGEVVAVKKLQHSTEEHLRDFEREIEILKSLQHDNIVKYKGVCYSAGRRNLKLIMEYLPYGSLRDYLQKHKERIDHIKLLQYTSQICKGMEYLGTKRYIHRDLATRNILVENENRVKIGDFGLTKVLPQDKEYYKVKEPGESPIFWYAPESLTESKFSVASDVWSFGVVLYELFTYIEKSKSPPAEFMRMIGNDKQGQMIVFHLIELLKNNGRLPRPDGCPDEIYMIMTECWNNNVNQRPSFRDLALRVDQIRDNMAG

| SMILES | JAK 2 (pKi) |
| --- | --- |
| C=CC(=O)N1CCN(CCn2c(=O)ccc3cnc(Nc4ccc(CN5CCOCC5)cc4)nc32)CC1 [Example 80] | E (E represents a pKi value of 7 or below (Ki of 100 nM or above)) |
| C=CC(=O)N1CC(CCn2c(=O)ccc3cnc(Nc4ccc5[nH]ncc5c4)nc32)C1 [Example 82] | E (E represents a pKi value of 7 or below (Ki of 100 nM or above)) |
| C=CC(=O)N1CC(CCn2c(=O)ccc3cnc(Nc4ccc5cn[nH]c5c4)nc32)C1 [Example 83] | E (E represents a pKi value of 7 or below (Ki of 100 nM or above)) |
| C=CC(=O)N1CC(CCn2c(=O)ccc3cnc(Nc4cccc(CN5CCSCC5)c4)nc32)C1 [Example 85] | E (E represents a pKi value of 7 or below (Ki of 100 nM or above)) |
| C=CC(=O)N1CC(CCn2c(=O)ccc3cnc(Nc4ccc(CN5CCSCC5)cc4)nc32)C1 [Example 86] | E (E represents a pKi value of 7 or below (Ki of 100 nM or above)) |
| C=CC(=O)N1CC(CCn2c(=O)ccc3cnc(Nc4cccc(CN(C)C)c4)nc32)C1 [Example 90] | E (E represents a pKi value of 7 or below (Ki of 100 nM or above)) |

Biological target: JAK1 (Homo sapiens (Human), UniProt P23458)
Test: Biochemical JAK1 kinase assay (LanthaScreen)
Details: not given
Summary of the method: as §1

Sequence of JAK1 (P23458 whole entry): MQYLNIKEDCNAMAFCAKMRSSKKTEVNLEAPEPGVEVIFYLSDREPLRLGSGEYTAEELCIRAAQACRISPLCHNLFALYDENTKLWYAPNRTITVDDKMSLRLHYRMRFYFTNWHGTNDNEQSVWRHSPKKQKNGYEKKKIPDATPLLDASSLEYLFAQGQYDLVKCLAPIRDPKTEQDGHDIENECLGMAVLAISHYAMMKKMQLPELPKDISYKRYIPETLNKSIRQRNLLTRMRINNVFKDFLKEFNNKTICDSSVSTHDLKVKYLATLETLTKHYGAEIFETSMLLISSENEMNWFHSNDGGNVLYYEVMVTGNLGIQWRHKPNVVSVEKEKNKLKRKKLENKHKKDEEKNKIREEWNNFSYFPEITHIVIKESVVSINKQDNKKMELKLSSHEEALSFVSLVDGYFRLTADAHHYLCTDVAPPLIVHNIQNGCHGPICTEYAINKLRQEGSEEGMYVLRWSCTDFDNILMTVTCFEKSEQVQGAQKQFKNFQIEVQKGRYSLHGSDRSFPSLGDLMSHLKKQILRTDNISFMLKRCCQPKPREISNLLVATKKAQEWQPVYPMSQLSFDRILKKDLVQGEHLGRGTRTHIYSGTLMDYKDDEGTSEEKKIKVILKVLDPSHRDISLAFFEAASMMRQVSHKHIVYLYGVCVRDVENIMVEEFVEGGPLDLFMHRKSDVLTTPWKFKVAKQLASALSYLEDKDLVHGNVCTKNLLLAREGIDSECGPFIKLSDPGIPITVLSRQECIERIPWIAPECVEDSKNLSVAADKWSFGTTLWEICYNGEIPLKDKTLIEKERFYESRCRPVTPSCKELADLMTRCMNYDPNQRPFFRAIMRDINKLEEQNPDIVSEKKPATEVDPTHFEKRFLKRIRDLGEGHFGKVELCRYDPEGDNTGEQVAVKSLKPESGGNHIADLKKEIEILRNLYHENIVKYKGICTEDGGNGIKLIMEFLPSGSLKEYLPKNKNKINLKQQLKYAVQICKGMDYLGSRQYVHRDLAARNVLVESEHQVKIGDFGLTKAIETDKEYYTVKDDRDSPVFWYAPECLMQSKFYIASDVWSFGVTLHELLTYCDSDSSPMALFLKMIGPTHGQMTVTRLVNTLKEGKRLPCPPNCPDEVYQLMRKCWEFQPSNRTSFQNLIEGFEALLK

| SMILES | JAK 1 (pKi) |
| --- | --- |
| C=CC(=O)N1CCN(CCn2c(=O)ccc3cnc(Nc4ccc(CN5CCOCC5)cc4)nc32)CC1 [Example 80] | E (E represents a pKi value of 7 or below (Ki of 100 nM or above)) |
| C=CC(=O)N1CC(CCn2c(=O)ccc3cnc(Nc4ccc5[nH]ncc5c4)nc32)C1 [Example 82] | E (E represents a pKi value of 7 or below (Ki of 100 nM or above)) |
| C=CC(=O)N1CC(CCn2c(=O)ccc3cnc(Nc4ccc5cn[nH]c5c4)nc32)C1 [Example 83] | E (E represents a pKi value of 7 or below (Ki of 100 nM or above)) |
| C=CC(=O)N1CC(CCn2c(=O)ccc3cnc(Nc4cccc(CN5CCSCC5)c4)nc32)C1 [Example 85] | E (E represents a pKi value of 7 or below (Ki of 100 nM or above)) |
| C=CC(=O)N1CC(CCn2c(=O)ccc3cnc(Nc4ccc(CN5CCSCC5)cc4)nc32)C1 [Example 86] | E (E represents a pKi value of 7 or below (Ki of 100 nM or above)) |
| C=CC(=O)N1CC(CCn2c(=O)ccc3cnc(Nc4cccc(CN(C)C)c4)nc32)C1 [Example 90] | E (E represents a pKi value of 7 or below (Ki of 100 nM or above)) |

Biological target: JAK3 (Homo sapiens (Human), UniProt P52333)
Test: Biochemical JAK3 kinase assay (LanthaScreen)
Details: not given
Summary of the method: as §1

Sequence of JAK3 (P52333 whole entry): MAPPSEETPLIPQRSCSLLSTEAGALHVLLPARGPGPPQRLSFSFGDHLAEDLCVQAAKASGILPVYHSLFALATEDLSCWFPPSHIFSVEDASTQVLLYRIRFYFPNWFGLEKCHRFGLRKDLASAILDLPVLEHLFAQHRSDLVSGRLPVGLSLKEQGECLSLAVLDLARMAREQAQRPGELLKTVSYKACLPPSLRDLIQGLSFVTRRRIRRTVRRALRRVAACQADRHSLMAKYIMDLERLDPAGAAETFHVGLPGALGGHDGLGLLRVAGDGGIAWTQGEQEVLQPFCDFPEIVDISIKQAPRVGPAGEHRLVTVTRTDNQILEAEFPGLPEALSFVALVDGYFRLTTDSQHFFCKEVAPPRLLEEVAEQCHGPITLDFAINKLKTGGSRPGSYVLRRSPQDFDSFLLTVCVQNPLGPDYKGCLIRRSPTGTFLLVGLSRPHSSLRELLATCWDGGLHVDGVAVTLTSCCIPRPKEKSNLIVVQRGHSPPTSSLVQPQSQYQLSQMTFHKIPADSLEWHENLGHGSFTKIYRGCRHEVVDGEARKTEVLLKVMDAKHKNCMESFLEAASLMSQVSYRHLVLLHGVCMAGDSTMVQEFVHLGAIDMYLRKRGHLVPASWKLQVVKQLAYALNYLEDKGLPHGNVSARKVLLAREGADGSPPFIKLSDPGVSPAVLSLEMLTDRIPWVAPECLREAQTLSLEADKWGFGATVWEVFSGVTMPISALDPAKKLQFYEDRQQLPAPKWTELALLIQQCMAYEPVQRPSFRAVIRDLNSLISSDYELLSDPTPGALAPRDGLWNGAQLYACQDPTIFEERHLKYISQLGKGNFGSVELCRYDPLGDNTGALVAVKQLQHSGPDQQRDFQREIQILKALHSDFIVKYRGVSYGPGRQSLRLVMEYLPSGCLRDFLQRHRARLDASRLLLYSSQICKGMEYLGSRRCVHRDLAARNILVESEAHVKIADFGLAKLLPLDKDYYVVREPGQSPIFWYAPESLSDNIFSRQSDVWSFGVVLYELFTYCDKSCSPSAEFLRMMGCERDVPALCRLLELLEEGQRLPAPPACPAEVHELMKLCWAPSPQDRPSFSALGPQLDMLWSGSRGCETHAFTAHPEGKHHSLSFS

| SMILES | JAK 3 (pKi) |
| --- | --- |
| C=CC(=O)N1CCN(CCn2c(=O)ccc3cnc(Nc4ccc(CN5CCOCC5)cc4)nc32)CC1 [Example 80] | B (B represents pKi value between 9 and 10 (Ki between 1 nM and 0.1 nM)) |
| C=CC(=O)N1CC(CCn2c(=O)ccc3cnc(Nc4ccc5[nH]ncc5c4)nc32)C1 [Example 82] | B (B represents pKi value between 9 and 10 (Ki between 1 nM and 0.1 nM)) |
| C=CC(=O)N1CC(CCn2c(=O)ccc3cnc(Nc4ccc5cn[nH]c5c4)nc32)C1 [Example 83] | B (B represents pKi value between 9 and 10 (Ki between 1 nM and 0.1 nM)) |
| C=CC(=O)N1CC(CCn2c(=O)ccc3cnc(Nc4cccc(CN5CCSCC5)c4)nc32)C1 [Example 85] | A (A represents a pKi value≥10 (Ki≤0.1 nM)) |
| C=CC(=O)N1CC(CCn2c(=O)ccc3cnc(Nc4ccc(CN5CCSCC5)cc4)nc32)C1 [Example 86] | B (B represents pKi value between 9 and 10 (Ki between 1 nM and 0.1 nM)) |
| C=CC(=O)N1CC(CCn2c(=O)ccc3cnc(Nc4cccc(CN(C)C)c4)nc32)C1 [Example 90] | B (B represents pKi value between 9 and 10 (Ki between 1 nM and 0.1 nM)) |

Same assay, conditions: selectivity JAK3 over JAK1, difference of pKi

| SMILES | JAK3 (pKi)-JAK1 (pKi) |
| --- | --- |
| C=CC(=O)N1CCN(CCn2c(=O)ccc3cnc(Nc4ccc(CN5CCOCC5)cc4)nc32)CC1 [Example 80] | A (A represents a value of 3 or above) |
| C=CC(=O)N1CC(CCn2c(=O)ccc3cnc(Nc4ccc5[nH]ncc5c4)nc32)C1 [Example 82] | A (A represents a value of 3 or above) |
| C=CC(=O)N1CC(CCn2c(=O)ccc3cnc(Nc4ccc5cn[nH]c5c4)nc32)C1 [Example 83] | A (A represents a value of 3 or above) |
| C=CC(=O)N1CC(CCn2c(=O)ccc3cnc(Nc4cccc(CN5CCSCC5)c4)nc32)C1 [Example 85] | A (A represents a value of 3 or above) |
| C=CC(=O)N1CC(CCn2c(=O)ccc3cnc(Nc4ccc(CN5CCSCC5)cc4)nc32)C1 [Example 86] | A (A represents a value of 3 or above) |
| C=CC(=O)N1CC(CCn2c(=O)ccc3cnc(Nc4cccc(CN(C)C)c4)nc32)C1 [Example 90] | A (A represents a value of 3 or above) |

Biological target: Tyk2 (Homo sapiens (Human), UniProt P29597)
Test: Biochemical Tyk2 kinase assay (LanthaScreen)
Details: not given
Summary of the method: as §1

Sequence of Tyk2 (P29597 whole entry): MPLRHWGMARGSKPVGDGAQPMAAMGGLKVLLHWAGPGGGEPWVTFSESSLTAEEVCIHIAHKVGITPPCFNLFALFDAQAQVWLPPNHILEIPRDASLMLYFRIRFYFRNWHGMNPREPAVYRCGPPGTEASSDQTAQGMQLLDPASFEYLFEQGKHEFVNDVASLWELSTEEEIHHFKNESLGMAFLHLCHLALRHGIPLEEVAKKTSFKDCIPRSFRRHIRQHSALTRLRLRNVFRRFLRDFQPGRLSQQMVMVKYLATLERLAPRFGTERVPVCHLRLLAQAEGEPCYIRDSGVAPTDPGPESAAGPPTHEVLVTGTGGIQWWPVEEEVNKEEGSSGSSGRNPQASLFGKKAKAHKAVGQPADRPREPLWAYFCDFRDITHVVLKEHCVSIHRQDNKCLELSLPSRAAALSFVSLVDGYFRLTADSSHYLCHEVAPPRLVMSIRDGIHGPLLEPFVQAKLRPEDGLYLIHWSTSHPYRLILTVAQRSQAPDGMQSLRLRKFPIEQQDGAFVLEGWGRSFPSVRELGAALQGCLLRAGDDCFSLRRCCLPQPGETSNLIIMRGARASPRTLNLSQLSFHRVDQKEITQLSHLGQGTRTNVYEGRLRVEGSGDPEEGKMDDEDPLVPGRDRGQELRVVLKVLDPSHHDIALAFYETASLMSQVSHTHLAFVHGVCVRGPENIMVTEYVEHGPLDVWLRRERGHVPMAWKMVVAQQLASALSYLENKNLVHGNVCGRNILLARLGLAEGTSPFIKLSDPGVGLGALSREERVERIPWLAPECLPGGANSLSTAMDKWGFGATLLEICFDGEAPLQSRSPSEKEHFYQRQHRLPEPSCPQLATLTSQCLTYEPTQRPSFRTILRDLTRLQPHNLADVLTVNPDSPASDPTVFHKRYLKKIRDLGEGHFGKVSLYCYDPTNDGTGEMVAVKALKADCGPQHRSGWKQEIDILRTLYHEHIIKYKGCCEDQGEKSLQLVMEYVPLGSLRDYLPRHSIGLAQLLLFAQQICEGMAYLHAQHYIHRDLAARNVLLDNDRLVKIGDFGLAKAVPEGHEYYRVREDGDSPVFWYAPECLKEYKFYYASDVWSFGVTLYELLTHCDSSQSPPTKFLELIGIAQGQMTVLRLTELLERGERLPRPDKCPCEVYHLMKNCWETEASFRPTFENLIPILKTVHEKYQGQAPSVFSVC

| SMILES | Tyk 2 (pKi) |
| --- | --- |
| C=CC(=O)N1CCN(CCn2c(=O)ccc3cnc(Nc4ccc(CN5CCOCC5)cc4)nc32)CC1 [Example 80] | E (E represents a pKi value of 7 or below (Ki of 100 nM or above)) |
| C=CC(=O)N1CC(CCn2c(=O)ccc3cnc(Nc4ccc5[nH]ncc5c4)nc32)C1 [Example 82] | E (E represents a pKi value of 7 or below (Ki of 100 nM or above)) |
| C=CC(=O)N1CC(CCn2c(=O)ccc3cnc(Nc4ccc5cn[nH]c5c4)nc32)C1 [Example 83] | E (E represents a pKi value of 7 or below (Ki of 100 nM or above)) |
| C=CC(=O)N1CC(CCn2c(=O)ccc3cnc(Nc4cccc(CN5CCSCC5)c4)nc32)C1 [Example 85] | E (E represents a pKi value of 7 or below (Ki of 100 nM or above)) |
| C=CC(=O)N1CC(CCn2c(=O)ccc3cnc(Nc4ccc(CN5CCSCC5)cc4)nc32)C1 [Example 86] | E (E represents a pKi value of 7 or below (Ki of 100 nM or above)) |
| C=CC(=O)N1CC(CCn2c(=O)ccc3cnc(Nc4cccc(CN(C)C)c4)nc32)C1 [Example 90] | E (E represents a pKi value of 7 or below (Ki of 100 nM or above)) |

Test system: Caco-2 cell monolayers
Test: Caco-2 permeation assay
Assay type: in vitro ADME
Details: 5 μM, A-B direction, with Verapamil (25 μM)
Summary of the method: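 Compounds tested at 5 μM in duplicate across Caco-2 monolayers, apical-to-basolateral, with 25 μM verapamil to block P-gp, at 37° C., 5% CO2. Apical and basal samples taken at 0 and 120 min, analysed by LC-MS/MS; Papp (cm/sec) calculated as dQ/(dt×Area×concentration).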

| SMILES | Caco Kp |
| --- | --- |
| C=CC(=O)N1CCN(CCn2c(=O)ccc3cnc(Nc4ccc(CN5CCOCC5)cc4)nc32)CC1 [Example 80] | C (C represents a value between 10×10^−6 and 30×10^−6 cm/sec) |
| C=CC(=O)N1CC(CCn2c(=O)ccc3cnc(Nc4ccc5[nH]ncc5c4)nc32)C1 [Example 82] | A (A represents a value below 5×10^−6 cm/sec) |
| C=CC(=O)N1CC(CCn2c(=O)ccc3cnc(Nc4ccc5cn[nH]c5c4)nc32)C1 [Example 83] | A (A represents a value below 5×10^−6 cm/sec) |
| C=CC(=O)N1CC(CCn2c(=O)ccc3cnc(Nc4cccc(CN5CCSCC5)c4)nc32)C1 [Example 85] | C (C represents a value between 10×10^−6 and 30×10^−6 cm/sec) |
| C=CC(=O)N1CC(CCn2c(=O)ccc3cnc(Nc4ccc(CN5CCSCC5)cc4)nc32)C1 [Example 86] | C (C represents a value between 10×10^−6 and 30×10^−6 cm/sec) |
| C=CC(=O)N1CC(CCn2c(=O)ccc3cnc(Nc4cccc(CN(C)C)c4)nc32)C1 [Example 90] | A (A represents a value below 5×10^−6 cm/sec) |
